These are literature values, as cited in Sander's compilation of Henry's law constants (doi:10.1021/cr60306a003).

This series is described as follows: Henry solubility constant Hcp at 298.15 K (mol/(m3 Pa)). To be noted: reference: Wilhelm et al. (1977); cited value.
Regarding `C=CC=C` [1,3-butadiene], the “Henry solubility constant Hcp” value was 0.00014.

Turning to `C=CCC` [1-butene], the “Henry solubility constant Hcp” value is 0.00013.

Regarding `C#CCC` [1-butyne], the “Henry solubility constant Hcp” value was 0.00075.

As to `CC(C)C` [2-methylpropane], the “Henry solubility constant Hcp” value is 8e-06.

Turning to `C=C(C)C` [2-methylpropene], the “Henry solubility constant Hcp” value is 5.6e-05.

Regarding `C#CC=C` [3-buten-1-yne], the “Henry solubility constant Hcp” value was 0.00037.

Consider `[Ar]` [argon], for which the “Henry solubility constant Hcp” value is 1.4e-05.

As for `CBr` [bromomethane], the “Henry solubility constant Hcp” value was 0.0016.

Take `CCCC` [butane]: the “Henry solubility constant Hcp” value is 1.2e-05.

For the compound `O=C=O` [carbon dioxide], the “Henry solubility constant Hcp” value was 0.00033.

Consider `[C-]#[O+]` [carbon monoxide], for which the “Henry solubility constant Hcp” value was 9.4e-06.

Take `O=C=S` [carbon oxide sulfide]: the “Henry solubility constant Hcp” value was 0.00021.

For the compound `[O][Cl+][O-]` [chlorine dioxide], the “Henry solubility constant Hcp” value was 0.01.

Take `FC(F)Cl` [chlorodifluoromethane]: the “Henry solubility constant Hcp” value was 0.00034.

For the compound `C=CCl` [chloroethene], the “Henry solubility constant Hcp” value was 0.00045.

`FCCl` [chlorofluoromethane]: the “Henry solubility constant Hcp” value was 0.0015.

As to `FC(F)(F)C(F)(F)Cl` [chloropentafluoroethane], the “Henry solubility constant Hcp” value is 3.4e-06.

As to `FC(F)(F)Cl` [chlorotrifluoromethane], the “Henry solubility constant Hcp” value is 9.3e-06.

Turning to `C1CC1` [cyclopropane], the “Henry solubility constant Hcp” value is 0.00011.

For `FC(F)(Cl)Cl` [dichlorodifluoromethane], the “Henry solubility constant Hcp” value was 2.1e-05.

For the compound `CNC` [dimethylamine], the “Henry solubility constant Hcp” value was 0.3.

On to `CC(C)(C)C` [dimethylpropane], for which the “Henry solubility constant Hcp” value was 5.9e-06.

In the case of `[N-]=[N+]=O` [dinitrogen monoxide], the “Henry solubility constant Hcp” value was 0.00024.

As for `FN(F)N(F)F` [dinitrogen tetrafluoride], the “Henry solubility constant Hcp” value is 8.4e-06.

Consider `CCN` [ethanamine], for which the “Henry solubility constant Hcp” value was 0.35.

For `C=C` [ethene], the “Henry solubility constant Hcp” value is 4.7e-05.

Turning to `C#C` [ethyne], the “Henry solubility constant Hcp” value is 0.00041.

For the compound `CF` [fluoromethane], the “Henry solubility constant Hcp” value is 0.00058.

As to `[He]` [helium], the “Henry solubility constant Hcp” value was 3.8e-06.

In the case of `FC(F)=C(F)C(F)(F)F` [hexafluoropropene], the “Henry solubility constant Hcp” value is 2.9e-06.

For `[HH]` [hydrogen], the “Henry solubility constant Hcp” value was 7.7e-06.

In the case of `[Kr]` [krypton], the “Henry solubility constant Hcp” value is 2.5e-05.

`CN` [methanamine]: the “Henry solubility constant Hcp” value was 0.35.

On to `[Ne]` [neon], for which the “Henry solubility constant Hcp” value was 4.4e-06.

With `FN(F)F` [nitrogen trifluoride], the “Henry solubility constant Hcp” value was 7.9e-06.

In the case of `O=O` [oxygen], the “Henry solubility constant Hcp” value was 1.3e-05.

For `O=[O+][O-]` [ozone], the “Henry solubility constant Hcp” value is 0.00013.

Consider `P` [phosphorus trihydride], for which the “Henry solubility constant Hcp” value was 8.1e-05.

As for `C=CC` [propene], the “Henry solubility constant Hcp” value was 7.3e-05.

Turning to `[Rn]` [radon], the “Henry solubility constant Hcp” value was 9.2e-05.

With `O=S=O` [sulfur dioxide], the “Henry solubility constant Hcp” value was 0.014.

Consider `FS(F)(F)(F)(F)F` [sulfur hexafluoride], for which the “Henry solubility constant Hcp” value is 2.4e-06.

On to `FC(F)=C(F)F` [tetrafluoroethene], for which the “Henry solubility constant Hcp” value was 1.6e-05.

Take `FC(F)(F)F` [tetrafluoromethane]: the “Henry solubility constant Hcp” value is 2.1e-06.

As to `FC(F)F` [trifluoromethane], the “Henry solubility constant Hcp” value was 0.00013.

Regarding `[Xe]` [xenon], the “Henry solubility constant Hcp” value was 4.2e-05.
